Experimental data: ChEMBL document CHEMBL3885861, “Open TG-GATES”

Species: Rattus norvegicus
Experiment: Open TG-GATES - Regimen: Single
Assay type: toxicity, organism-based, Sprague-Dawley
Set-up: regimen Single, gender Male, age 6 weeks
Details: in vivo, po, 1000 mg/kg, route gavage, dose level High; for APTT / Bas / Eos / Fbg / Hb / Ht / Lym / MCH / MCHC / MCV / Mono / Neu / PT / Plat / RBC / Ret / WBC: tissue Blood; for KIDNEY_L / KIDNEY_R / KIDNEY_TOTAL: tissue Kidney; for LIVER: tissue Liver; for A/G / ALP / ALT / AST / BUN / CRE / Ca / Cl / DBIL / GLC / IP / K / LDH / Na / PL / RALB / TBIL / TC / TG / TP / gamma-GTP: tissue Plasma

Cc1nnc2n1-c1ccc(Cl)cc1C(c1ccccc1Cl)=NC2 [TRIAZOLAM]
TERMINAL_BW (3 h): 193.6 g | APTT (3 h): 16 s | Bas (3 h): 0% | Eos (3 h): 1% | Fbg (3 h): 277.8 mg/dL | Hb (3 h): 13.8 g/dL | Ht (3 h): 41.7% | Lym (3 h): 72% | MCH (3 h): 20.9 pg | MCHC (3 h): 33.2% | MCV (3 h): 63 fL | Mono (3 h): 3.2% | Neu (3 h): 23% | PT (3 h): 13.4 s | Plat (3 h): 135.1 x10_4/uL | RBC (3 h): 663 x10_4/ul | Ret (3 h): 9.1% | WBC (3 h): 64.9 x10_2/uL | KIDNEY_L (3 h): 0.9 g | KIDNEY_R (3 h): 0.9 g | KIDNEY_TOTAL (3 h): 1.8 g | LIVER (3 h): 8.3 g | A/G (3 h): 0.9 | ALP (3 h): 1289.6 IU/L | ALT (3 h): 38.8 IU/L | AST (3 h): 72 IU/L | BUN (3 h): 9.4 mg/dL | CRE (3 h): 0.1 mg/dL | Ca (3 h): 11 mg/dL | Cl (3 h): 102.6 meq/L | DBIL (3 h): 0.008 mg/dL | GLC (3 h): 174.6 mg/dL | IP (3 h): 10.4 mg/dL | K (3 h): 4.3 meq/L | LDH (3 h): 97.8 IU/L | Na (3 h): 139.6 meq/L | PL (3 h): 148.8 mg/dL | RALB (3 h): 2.4 g/dL | TBIL (3 h): 0.064 mg/dL | TC (3 h): 78.2 mg/dL | TG (3 h): 50 mg/dL | TP (3 h): 5.2 g/dL | gamma-GTP (3 h): 1 IU/L | TERMINAL_BW (6 h): 193.6 g | APTT (6 h): 18.3 s | Bas (6 h): 0% | Eos (6 h): 0.6% | Fbg (6 h): 282 mg/dL | Hb (6 h): 13.9 g/dL | Ht (6 h): 42.3% | Lym (6 h): 75.8% | MCH (6 h): 20.6 pg | MCHC (6 h): 32.8% | MCV (6 h): 62.8 fL | Mono (6 h): 2.2% | Neu (6 h): 20.4% | PT (6 h): 13.5 s | Plat (6 h): 122.7 x10_4/uL | RBC (6 h): 674 x10_4/ul | Ret (6 h): 8.5% | WBC (6 h): 87.5 x10_2/uL | KIDNEY_L (6 h): 0.9 g | KIDNEY_R (6 h): 0.9 g | KIDNEY_TOTAL (6 h): 1.8 g | LIVER (6 h): 8.3 g | A/G (6 h): 0.9 | ALP (6 h): 1325.6 IU/L | ALT (6 h): 36 IU/L | AST (6 h): 67.4 IU/L | BUN (6 h): 10 mg/dL | CRE (6 h): 0.1 mg/dL | Ca (6 h): 11.2 mg/dL | Cl (6 h): 103.2 meq/L | DBIL (6 h): 0.012 mg/dL | GLC (6 h): 184.2 mg/dL | IP (6 h): 10.9 mg/dL | K (6 h): 4.5 meq/L | LDH (6 h): 87.2 IU/L | Na (6 h): 141.6 meq/L | PL (6 h): 162.8 mg/dL | RALB (6 h): 2.5 g/dL | TBIL (6 h): 0.056 mg/dL | TC (6 h): 85.4 mg/dL | TG (6 h): 68.2 mg/dL | TP (6 h): 5.3 g/dL | gamma-GTP (6 h): 1.6 IU/L | TERMINAL_BW (9 h): 192.1 g | APTT (9 h): 16.7 s | Bas (9 h): 0% | Eos (9 h): 0.6% | Fbg (9 h): 282.6 mg/dL | Hb (9 h): 13.3 g/dL | Ht (9 h): 40.5% | Lym (9 h): 74.2% | MCH (9 h): 20.9 pg | MCHC (9 h): 32.8% | MCV (9 h): 63.8 fL | Mono (9 h): 2.4% | Neu (9 h): 21.6% | PT (9 h): 13.9 s | Plat (9 h): 116.9 x10_4/uL | RBC (9 h): 635.4 x10_4/ul | Ret (9 h): 9.5% | WBC (9 h): 86.1 x10_2/uL | KIDNEY_L (9 h): 0.9 g | KIDNEY_R (9 h): 0.9 g | KIDNEY_TOTAL (9 h): 1.8 g | LIVER (9 h): 7.6 g | A/G (9 h): 0.9 | ALP (9 h): 1384.4 IU/L | ALT (9 h): 41.8 IU/L | AST (9 h): 73.4 IU/L | BUN (9 h): 9 mg/dL | CRE (9 h): 0.1 mg/dL | Ca (9 h): 10.9 mg/dL | Cl (9 h): 104 meq/L | DBIL (9 h): 0.014 mg/dL | GLC (9 h): 177.8 mg/dL | IP (9 h): 10.6 mg/dL | K (9 h): 4.4 meq/L | LDH (9 h): 84.2 IU/L | Na (9 h): 141 meq/L | PL (9 h): 148 mg/dL | RALB (9 h): 2.5 g/dL | TBIL (9 h): 0.064 mg/dL | TC (9 h): 76.4 mg/dL | TG (9 h): 56.4 mg/dL | TP (9 h): 5.1 g/dL | gamma-GTP (9 h): 1.4 IU/L | TERMINAL_BW (24 h): 208.3 g | APTT (24 h): 17 s | Bas (24 h): 0.2% | Eos (24 h): 0.8% | Fbg (24 h): 290.2 mg/dL | Hb (24 h): 13.9 g/dL | Ht (24 h): 41.6% | Lym (24 h): 75.4% | MCH (24 h): 20.8 pg | MCHC (24 h): 33.4% | MCV (24 h): 62.2 fL | Mono (24 h): 2.8% | Neu (24 h): 20.4% | PT (24 h): 13 s | Plat (24 h): 128.9 x10_4/uL | RBC (24 h): 669.2 x10_4/ul | Ret (24 h): 8.2% | WBC (24 h): 97.7 x10_2/uL | KIDNEY_L (24 h): 0.9 g | KIDNEY_R (24 h): 0.9 g | KIDNEY_TOTAL (24 h): 1.8 g | LIVER (24 h): 9.9 g | A/G (24 h): 0.9 | ALP (24 h): 1921.8 IU/L | ALT (24 h): 44.8 IU/L | AST (24 h): 60.2 IU/L | BUN (24 h): 13.6 mg/dL | CRE (24 h): 0.2 mg/dL | Ca (24 h): 11.5 mg/dL | Cl (24 h): 100.8 meq/L | DBIL (24 h): 0.014 mg/dL | GLC (24 h): 175.6 mg/dL | IP (24 h): 10 mg/dL | K (24 h): 4.3 meq/L | LDH (24 h): 84.4 IU/L | Na (24 h): 141.4 meq/L | PL (24 h): 167.6 mg/dL | RALB (24 h): 2.7 g/dL | TBIL (24 h): 0.058 mg/dL | TC (24 h): 85.2 mg/dL | TG (24 h): 84.2 mg/dL | TP (24 h): 5.6 g/dL | gamma-GTP (24 h): 1 IU/L
